In ChEMBL document CHEMBL1127901, “Conformationally constrained analogues of dag .8. Changes in PK-C binding affinity produced by isosteric groups of the 3-O-acyl function in 2-deoxy-L-ribonolactones” (Bioorg Med Chem Lett, 1994):

Columns and labels:
[1] = biological target: Protein kinase C alpha type (Rattus norvegicus, UniProt P05696); assay: Inhibition of [3H]PDBU binding to Protein kinase C alpha
Protein kinase C (PKC) [2] = assay: Inhibition of [3H]PDBU binding to protein kinase C mixture; format: protein assay, Rattus norvegicus
Protein kinase C (PKC) [3] = assay: Inhibition of [3H]-PDBU binding to protein kinase C mixture; format: protein assay, Rattus norvegicus

SMILES | Ki [1] [nM] | Ki (Protein kinase C (PKC) [2]) [nM] | Ki (Protein kinase C (PKC) [3]) [nM]
CCCCCCCCCCCCCCOC(=O)C[C@@H]1CC(=O)O[C@H]1CO | 1470 |  | 
CCCCCCCCCCCCCC(=O)O[C@@H]1CC(=O)O[C@H]1CO | 1500 | 2500 | 
CCCCCCCCCCCCCCC(=O)[C@@H]1CC(=O)O[C@H]1CO |  |  | 50750
CCCCCCCCCCCCCC(=O)O[C@@H]1CC(=O)O[C@H]1CCO | 880 |  | 
CCCCCCCCCCCCCC(=O)OC[C@@H]1CC(=O)O[C@H]1CO | 3100 |  | 
CCCCCCCCCCCCCCOC(=O)[C@@H]1CC(=O)O[C@H]1CO |  |  | 8070
CCCCCCCCCCCCCCO[C@@H]1CC(=O)O[C@H]1CO |  |  | 3310
CCCCCCCCCCCCCCOC(=O)C[C@@H]1CC(=O)O[C@H]1CCO | 18600 |  | 
